Laboratory results as given in ChEMBL document CHEMBL1151757, “Synthesis, radiosynthesis, and biological evaluation of fluorine-18-labeled 2beta-carbo(fluoroalkoxy)-3beta-(3'-((Z)-2-haloethenyl)phenyl)nortropanes: candidate radioligands for in vivo imaging of the serotonin transporter with positron emission tomography” (J Med Chem, 2008).

What was measured:
[1] = Ratio of drug uptake in pons to cerebellum in anesthetized cynomolgus monkey after 105 mins postinjection; type: ADME, organism-based, Macaca fascicularis; details: in vivo, 1.75 h
[2] = Ratio of drug uptake in pons to cerebellum in anesthetized cynomolgus monkey after 145 mins postinjection; type: ADME, organism-based, Macaca fascicularis; details: in vivo
[3] = Ratio of drug uptake in medulla to cerebellum in anesthetized cynomolgus monkey after 1.5 mins postinjection; type: ADME, organism-based, Macaca fascicularis; details: in vivo, 0.025 h
[4] = Ratio of drug uptake in medulla to cerebellum in anesthetized cynomolgus monkey after 65 mins postinjection; type: ADME, organism-based, Macaca fascicularis; details: in vivo
[5] = Ratio of drug uptake in medulla to cerebellum in anesthetized cynomolgus monkey after 135 mins postinjection; type: ADME, organism-based, Macaca fascicularis; details: in vivo, 2.25 h
[6] = Ratio of drug uptake in medulla to cerebellum in anesthetized cynomolgus monkey after 185 mins postinjection; type: ADME, organism-based, Macaca fascicularis; details: in vivo
[7] = Drug uptake in anesthetized cynomolgus monkey brain occipital lobe after 4.5 mins postinjection; type: ADME, organism-based, Macaca fascicularis; details: in vivo, 0.075 h
[8] = Drug uptake in anesthetized cynomolgus monkey brain occipital lobe after 55 mins postinjection; type: ADME, organism-based, Macaca fascicularis; details: in vivo
[9] = Drug uptake in anesthetized cynomolgus monkey brain occipital lobe after 105 mins postinjection; type: ADME, organism-based, Macaca fascicularis; details: in vivo, 1.75 h
[10] = Drug uptake in anesthetized cynomolgus monkey brain occipital lobe after 175 mins postinjection; type: ADME, organism-based, Macaca fascicularis; details: in vivo
[11] = Drug uptake in anesthetized cynomolgus monkey brain occipital lobe after 235 mins postinjection; type: ADME, organism-based, Macaca fascicularis; details: in vivo
[12] = Drug uptake in anesthetized cynomolgus monkey brain frontal lobe after 2.5 mins postinjection; type: ADME, organism-based, Macaca fascicularis; details: in vivo
[13] = Drug uptake in anesthetized cynomolgus monkey brain frontal lobe after 6.5 mins postinjection; type: ADME, organism-based, Macaca fascicularis; details: in vivo
[14] = Drug uptake in anesthetized cynomolgus monkey brain frontal lobe after 22.5 mins postinjection; type: ADME, organism-based, Macaca fascicularis; details: in vivo, 0.375 h
[15] = Drug uptake in anesthetized cynomolgus monkey brain frontal lobe after 27.5 mins postinjection; type: ADME, organism-based, Macaca fascicularis; details: in vivo
[16] = Drug uptake in anesthetized cynomolgus monkey brain frontal lobe after 95 mins postinjection; type: ADME, organism-based, Macaca fascicularis; details: in vivo
[17] = Drug uptake in anesthetized cynomolgus monkey brain frontal lobe after 155 mins postinjection; type: ADME, organism-based, Macaca fascicularis; details: in vivo
[18] = Ratio of drug uptake in midbrain to cerebellum in anesthetized cynomolgus monkey after 225 mins postinjection; type: ADME, organism-based, Macaca fascicularis; details: in vivo, 3.75 h
[19] = Ratio of drug uptake in occipital lobe to cerebellum in anesthetized cynomolgus monkey after 105 mins postinjection; type: ADME, organism-based, Macaca fascicularis; details: in vivo, 1.75 h
[20] = Ratio of drug uptake in occipital lobe to cerebellum in anesthetized cynomolgus monkey after 115 mins postinjection; type: ADME, organism-based, Macaca fascicularis; details: in vivo
Putamen [21] = experiment: Drug uptake in anesthetized cynomolgus monkey brain putamen after 225 mins postinjection; type: ADME, organism-based, Macaca fascicularis; details: in vivo, 3.75 h
Thalamus [22] = experiment: Drug uptake in anesthetized cynomolgus monkey brain thalamus after 0.5 mins postinjection; type: ADME, organism-based, Macaca fascicularis; details: in vivo
[23] = Ratio of drug uptake in frontal lobe to cerebellum in anesthetized cynomolgus monkey after 75 mins postinjection; type: ADME, organism-based, Macaca fascicularis; details: in vivo, 1.25 h
Midbrain [24] = experiment: Drug uptake in anesthetized cynomolgus monkey brain midbrain after 165 mins postinjection; type: ADME, organism-based, Macaca fascicularis; details: in vivo, 2.75 h
Thalamus [25] = experiment: Drug uptake in anesthetized cynomolgus monkey brain thalamus after 205 mins postinjection; type: ADME, organism-based, Macaca fascicularis; details: in vivo
Midbrain [26] = experiment: Drug uptake in anesthetized cynomolgus monkey brain midbrain after 185 mins postinjection; type: ADME, organism-based, Macaca fascicularis; details: in vivo
[27] = Drug uptake in anesthetized cynomolgus monkey brain occipital lobe after 205 mins postinjection; type: ADME, organism-based, Macaca fascicularis; details: in vivo
[28] = Drug uptake in anesthetized cynomolgus monkey brain cerebellum after 195 mins postinjection; type: ADME, organism-based, Macaca fascicularis; details: in vivo, 3.25 h
[29] = Ratio of drug uptake in frontal lobe to cerebellum in anesthetized cynomolgus monkey after 235 mins postinjection; type: ADME, organism-based, Macaca fascicularis; details: in vivo
[30] = Ratio of drug uptake in frontal lobe to cerebellum in anesthetized cynomolgus monkey after 205 mins postinjection; type: ADME, organism-based, Macaca fascicularis; details: in vivo
Putamen [31] = experiment: Drug uptake in anesthetized cynomolgus monkey brain putamen after 205 mins postinjection; type: ADME, organism-based, Macaca fascicularis; details: in vivo
Thalamus [32] = experiment: Drug uptake in anesthetized cynomolgus monkey brain thalamus after 185 mins postinjection; type: ADME, organism-based, Macaca fascicularis; details: in vivo
Pons [33] = experiment: Drug uptake in anesthetized cynomolgus monkey brain pons after 155 mins postinjection; type: ADME, organism-based, Macaca fascicularis; details: in vivo
Pons [34] = experiment: Drug uptake in anesthetized cynomolgus monkey brain pons after 175 mins postinjection; type: ADME, organism-based, Macaca fascicularis; details: in vivo
Medulla [35] = experiment: Drug uptake in anesthetized cynomolgus monkey brain medulla after 2.5 mins postinjection; type: ADME, organism-based, Macaca fascicularis; details: in vivo
Medulla [36] = experiment: Drug uptake in anesthetized cynomolgus monkey brain medulla after 6.5 mins postinjection; type: ADME, organism-based, Macaca fascicularis; details: in vivo
Medulla [37] = experiment: Drug uptake in anesthetized cynomolgus monkey brain medulla after 22.5 mins postinjection; type: ADME, organism-based, Macaca fascicularis; details: in vivo, 0.375 h
[38] = Ratio of drug uptake in caudate to cerebellum in anesthetized cynomolgus monkey after 225 mins postinjection; type: ADME, organism-based, Macaca fascicularis; details: in vivo, 3.75 h
[39] = Drug uptake in anesthetized cynomolgus monkey brain cerebellum after 4.5 mins postinjection; type: ADME, organism-based, Macaca fascicularis; details: in vivo, 0.075 h
[40] = Drug uptake in anesthetized cynomolgus monkey brain cerebellum after 12.5 mins postinjection; type: ADME, organism-based, Macaca fascicularis; details: in vivo
[41] = Drug uptake in anesthetized cynomolgus monkey brain cerebellum after 35 mins postinjection; type: ADME, organism-based, Macaca fascicularis; details: in vivo
[42] = Drug uptake in anesthetized cynomolgus monkey brain cerebellum after 95 mins postinjection; type: ADME, organism-based, Macaca fascicularis; details: in vivo
[43] = Drug uptake in anesthetized cynomolgus monkey brain cerebellum after 225 mins postinjection; type: ADME, organism-based, Macaca fascicularis; details: in vivo, 3.75 h
[44] = Drug uptake in anesthetized cynomolgus monkey brain cerebellum after 235 mins postinjection; type: ADME, organism-based, Macaca fascicularis; details: in vivo
[45] = Ratio of drug uptake in putamen to cerebellum in anesthetized cynomolgus monkey after 65 mins postinjection; type: ADME, organism-based, Macaca fascicularis; details: in vivo
[46] = Ratio of drug uptake in thalamus to cerebellum in anesthetized cynomolgus monkey after 155 mins postinjection; type: ADME, organism-based, Macaca fascicularis; details: in vivo
Caudate [47] = experiment: Drug uptake in anesthetized cynomolgus monkey brain caudate after 0.5 mins postinjection; type: ADME, organism-based, Macaca fascicularis, Caudate nucleus; details: in vivo
Caudate [48] = experiment: Drug uptake in anesthetized cynomolgus monkey brain caudate after 3.5 mins postinjection; type: ADME, organism-based, Macaca fascicularis, Caudate nucleus; details: in vivo
Caudate [49] = experiment: Drug uptake in anesthetized cynomolgus monkey brain caudate after 4.5 mins postinjection; type: ADME, organism-based, Macaca fascicularis, Caudate nucleus; details: in vivo, 0.075 h
Caudate [50] = experiment: Drug uptake in anesthetized cynomolgus monkey brain caudate after 12.5 mins postinjection; type: ADME, organism-based, Macaca fascicularis, Caudate nucleus; details: in vivo
Caudate [51] = experiment: Drug uptake in anesthetized cynomolgus monkey brain caudate after 15.5 mins postinjection; type: ADME, organism-based, Macaca fascicularis, Caudate nucleus; details: in vivo
Caudate [52] = experiment: Drug uptake in anesthetized cynomolgus monkey brain caudate after 115 mins postinjection; type: ADME, organism-based, Macaca fascicularis, Caudate nucleus; details: in vivo
Caudate [53] = experiment: Drug uptake in anesthetized cynomolgus monkey brain caudate after 125 mins postinjection; type: ADME, organism-based, Macaca fascicularis, Caudate nucleus; details: in vivo
Caudate [54] = experiment: Drug uptake in anesthetized cynomolgus monkey brain caudate after 135 mins postinjection; type: ADME, organism-based, Macaca fascicularis, Caudate nucleus; details: in vivo, 2.25 h
Caudate [55] = experiment: Drug uptake in anesthetized cynomolgus monkey brain caudate after 175 mins postinjection; type: ADME, organism-based, Macaca fascicularis, Caudate nucleus; details: in vivo
Putamen [56] = experiment: Drug uptake in anesthetized cynomolgus monkey brain putamen after 15.5 mins postinjection; type: ADME, organism-based, Macaca fascicularis; parameters: unit not given here; details: in vivo
Putamen [57] = experiment: Drug uptake in anesthetized cynomolgus monkey brain putamen after 65 mins postinjection; type: ADME, organism-based, Macaca fascicularis; parameters: unit not given here; details: in vivo
Putamen [58] = experiment: Drug uptake in anesthetized cynomolgus monkey brain putamen after 95 mins postinjection; type: ADME, organism-based, Macaca fascicularis; parameters: unit not given here; details: in vivo
Thalamus [59] = experiment: Drug uptake in anesthetized cynomolgus monkey brain thalamus after 75 mins postinjection; type: ADME, organism-based, Macaca fascicularis; parameters: unit not given here; details: in vivo, 1.25 h
Thalamus [60] = experiment: Drug uptake in anesthetized cynomolgus monkey brain thalamus after 175 mins postinjection; type: ADME, organism-based, Macaca fascicularis; parameters: unit not given here; details: in vivo
Thalamus [61] = experiment: Drug uptake in anesthetized cynomolgus monkey brain thalamus after 215 mins postinjection; type: ADME, organism-based, Macaca fascicularis; parameters: unit not given here; details: in vivo
Midbrain [62] = experiment: Drug uptake in anesthetized cynomolgus monkey brain midbrain after 3.5 mins postinjection; type: ADME, organism-based, Macaca fascicularis; parameters: unit not given here; details: in vivo
Midbrain [63] = experiment: Drug uptake in anesthetized cynomolgus monkey brain midbrain after 9.5 mins postinjection; type: ADME, organism-based, Macaca fascicularis; parameters: unit not given here; details: in vivo
Midbrain [64] = experiment: Drug uptake in anesthetized cynomolgus monkey brain midbrain after 15.5 mins postinjection; type: ADME, organism-based, Macaca fascicularis; parameters: unit not given here; details: in vivo
Midbrain [65] = experiment: Drug uptake in anesthetized cynomolgus monkey brain midbrain after 22.5 mins postinjection; type: ADME, organism-based, Macaca fascicularis; parameters: unit not given here; details: in vivo, 0.375 h
Midbrain [66] = experiment: Drug uptake in anesthetized cynomolgus monkey brain midbrain after 65 mins postinjection; type: ADME, organism-based, Macaca fascicularis; parameters: unit not given here; details: in vivo
Midbrain [67] = experiment: Drug uptake in anesthetized cynomolgus monkey brain midbrain after 95 mins postinjection; type: ADME, organism-based, Macaca fascicularis; parameters: unit not given here; details: in vivo
[68] = Ratio of drug uptake in midbrain to cerebellum in anesthetized cynomolgus monkey after 2.5 mins postinjection; type: ADME, organism-based, Macaca fascicularis; details: in vivo

SMILES: O=C(OCC[18F])C1C2CCC(CC1c1cccc(/C=C\Br)c1)N2 (stereo not drawn)
- Ratio [1]: 1.5
- Ratio [2]: 1.8
- Ratio [3]: 1.3
- Ratio [4]: 1.4
- Ratio [5]: 1.7
- Ratio [6]: 1.9
- Drug uptake [7]: 1.32
- Drug uptake [8]: 3.49
- Drug uptake [9]: 3.15
- Drug uptake [10]: 2.42
- Drug uptake [11]: 1.94
- Drug uptake [12]: 0.22
- Drug uptake [13]: 1.75
- Drug uptake [14]: 2.54
- Drug uptake [15]: 2.69
- Drug uptake [16]: 2.75
- Drug uptake [17]: 2.46
- Ratio [18]: 2.3
- Ratio [19]: 1.1
- Ratio [20]: 1.1
- Drug uptake (Putamen [21]): 3
- Drug uptake (Thalamus [22]): 0
- Ratio [23]: 0.9
- Drug uptake (Midbrain [24]): 4.28
- Drug uptake (Thalamus [25]): 3.3
- Drug uptake (Midbrain [26]): 4.14
- Drug uptake [27]: 2.28
- Drug uptake [28]: 1.79
- Ratio [29]: 1.2
- Ratio [30]: 1.1
- Drug uptake (Putamen [31]): 3.42
- Drug uptake (Thalamus [32]): 3.48
- Drug uptake (Pons [33]): 3.92
- Drug uptake (Pons [34]): 3.72
- Drug uptake (Medulla [35]): 0.61
- Drug uptake (Medulla [36]): 3.64
- Drug uptake (Medulla [37]): 4.7
- Ratio [38]: 1.8
- Drug uptake [39]: 1.76
- Drug uptake [40]: 3.41
- Drug uptake [41]: 3.84
- Drug uptake [42]: 3.05
- Drug uptake [43]: 1.64
- Drug uptake [44]: 1.62
- Ratio [45]: 1.5
- Ratio [46]: 1.7
- Drug uptake (Caudate [47]): 0
- Drug uptake (Caudate [48]): 0.63
- Drug uptake (Caudate [49]): 1.12
- Drug uptake (Caudate [50]): 2.61
- Drug uptake (Caudate [51]): 2.89
- Drug uptake (Caudate [52]): 4.06
- Drug uptake (Caudate [53]): 3.75
- Drug uptake (Caudate [54]): 3.74
- Drug uptake (Caudate [55]): 3.29
- Drug uptake (Putamen [56]): 4.05
- Drug uptake (Putamen [57]): 5.1
- Drug uptake (Putamen [58]): 4.83
- Drug uptake (Thalamus [59]): 4.29
- Drug uptake (Thalamus [60]): 3.36
- Drug uptake (Thalamus [61]): 2.92
- Drug uptake (Midbrain [62]): 0.95
- Drug uptake (Midbrain [63]): 3.41
- Drug uptake (Midbrain [64]): 4.06
- Drug uptake (Midbrain [65]): 4.28
- Drug uptake (Midbrain [66]): 5
- Drug uptake (Midbrain [67]): 4.91
- Ratio [68]: 1.3
